Results taken from EP4682145A1, “BENZOHETEROCYCLIC COMPOUND, AND PREPARATION METHOD THEREFOR AND USE THEREOF” (Cascade Pharmaceuticals, Inc., priority 2023, dated 2024).

These compounds were tested against T1, human FFAR1 (GPR40) (Homo sapiens, UniProt O14842) (assay: NFAT-RE-based reporter gene activity assay (Dual-Glo luciferase) for GPR40 agonistic activity in co-transfected HEK293T cells). Settings: 4-hour treatment.
T1 construct: Flag; expressed in transfected cells; host or cells: HEK293T
Format: cell-based
In short: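 HEK293T cells co-transfected with human FFAR1, NFAT-RE firefly luciferase and TK-Renilla plasmids; 24 h later treated 4 h with 10 half-log compound dilutions from 1 µM. Firefly/Renilla ratio normalised to DMSO; EC50 from four-parameter fit.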

T1 sequence (O14842 whole entry): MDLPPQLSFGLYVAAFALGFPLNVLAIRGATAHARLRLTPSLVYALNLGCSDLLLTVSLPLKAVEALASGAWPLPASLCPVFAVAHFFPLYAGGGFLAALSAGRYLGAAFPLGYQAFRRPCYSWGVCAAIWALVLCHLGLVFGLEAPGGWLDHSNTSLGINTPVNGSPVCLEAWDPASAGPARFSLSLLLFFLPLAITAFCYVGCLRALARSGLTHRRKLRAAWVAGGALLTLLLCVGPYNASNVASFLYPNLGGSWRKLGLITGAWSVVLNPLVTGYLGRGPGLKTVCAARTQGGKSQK

Row | SMILES | EC50
1 | COc1cccc(N2CCC(c3oc4cc(C(CC(=O)O)C5CC5)ccc4c3C(=O)Nc3ccc(C)cc3F)CC2)c1 (stereo not drawn) [Compound 251] | 100 to 500 nM
2 | COc1cccc(N2CCC(c3oc4cc(C(CC(=O)O)C5CC5)ccc4c3C(=O)Nc3c(C)cccc3F)CC2)c1 (stereo not drawn) [Compound 252] | 100 to 500 nM
3 | COc1cccc(N2CCC(c3oc4cc([C@@H](CC(=O)O)C5CC5)ccc4c3C(=O)Nc3cc(C)ccc3F)CC2)c1 [Compound 253] | ≤ 10 nM
4 | COc1cccc(N2CCC(c3oc4cc(C(CC(=O)O)C5CC5)ccc4c3C(=O)Nc3cccc(F)c3F)CC2)c1 (stereo not drawn) [Compound 254] | 100 to 500 nM
5 | COc1cccc(N2CCC(c3oc4cc(C(CC(=O)O)C5CC5)ccc4c3C(=O)Nc3ccc(F)cc3F)CC2)c1 (stereo not drawn) [Compound 255] | 100 to 500 nM
6 | COc1cccc(N2CCC(c3oc4cc(C(CC(=O)O)C5CC5)ccc4c3C(=O)Nc3c(F)cccc3F)CC2)c1 (stereo not drawn) [Compound 256] | 100 to 500 nM
7 | COc1cccc(N2CCC(c3oc4cc([C@@H](CC(=O)O)C5CC5)ccc4c3C(=O)Nc3cc(F)ccc3F)CC2)c1 [Compound 257] | ≤ 10 nM
8 | COc1cccc(N2CCC(c3oc4cc(C(CC(=O)O)C5CC5)ccc4c3C(=O)Nc3cccc(OC)c3F)CC2)c1 (stereo not drawn) [Compound 258] | 100 to 500 nM
9 | COc1cccc(N2CCC(c3oc4cc(C(CC(=O)O)C5CC5)ccc4c3C(=O)Nc3c(F)cccc3OC)CC2)c1 (stereo not drawn) [Compound 259] | > 500 nM
10 | COc1cccc(N2CCC(c3oc4cc([C@@H](CC(=O)O)C5CC5)ccc4c3C(=O)Nc3cc(OC)ccc3F)CC2)c1 [Compound 260] | 10 to 100 nM
11 | COc1cccc(N2CCC(c3oc4cc([C@@H](CC(=O)O)C5CC5)ccc4c3C(=O)Nc3cc(C(F)(F)F)ccc3F)CC2)c1 [Compound 261] | ≤ 10 nM
12 | COc1cccc(N2CCC(c3oc4cc([C@@H](CC(=O)O)C5CC5)ccc4c3C(=O)Nc3cc(OC(F)(F)F)ccc3F)CC2)c1 [Compound 262] | < 10 nM
13 | COc1cccc(N2CCC(c3oc4cc(C(CC(=O)O)C5CC5)ccc4c3C(=O)Nc3c(F)cccc3C(F)(F)F)CC2)c1 (stereo not drawn) [Compound 263] | 100 to 500 nM
14 | COc1cccc(N2CCC(c3oc4cc(C(CC(=O)O)C5CC5)ccc4c3C(=O)Nc3c(F)cccc3Br)CC2)c1 (stereo not drawn) [Compound 264] | 100 to 500 nM
15 | COc1cccc(N2CCC(c3oc4cc([C@@H](CC(=O)O)C5CC5)ccc4c3C(=O)Nc3cc(C)ccc3Cl)CC2)c1 [Compound 265] | ≤ 10 nM
16 | COc1cccc(N2CCC(c3oc4cc([C@@H](CC(=O)O)C5CC5)ccc4c3C(=O)Nc3cc(F)ccc3Cl)CC2)c1 [Compound 266] | < 10 nM
17 | COc1cccc(N2CCC(c3oc4cc([C@@H](CC(=O)O)C5CC5)ccc4c3C(=O)Nc3cc(Cl)ccc3Cl)CC2)c1 [Compound 267] | ≤ 10 nM
18 | COc1cccc(N2CCC(c3oc4cc([C@@H](CC(=O)O)C5CC5)ccc4c3C(=O)Nc3cc(OC)ccc3Cl)CC2)c1 [Compound 268] | ≤ 10 nM
19 | COc1cccc(N2CCC(c3oc4cc([C@@H](CC(=O)O)C5CC5)ccc4c3C(=O)Nc3cc(C)ccc3C)CC2)c1 [Compound 269] | 10 to 100 nM
20 | COc1cccc(N2CCC(c3oc4cc([C@@H](CC(=O)O)C5CC5)ccc4c3C(=O)Nc3cc(Cl)ccc3F)CC2)c1 [Compound 270] | 10 to 100 nM
21 | COc1cccc(N2CCC(c3oc4cc([C@@H](CC(=O)O)C5CC5)ccc4c3C(=O)Nc3cc(F)ccc3Br)CC2)c1 [Compound 271] | ≤ 10 nM
22 | COc1cccc(N2CCC(c3oc4cc([C@@H](CC(=O)O)C5CC5)ccc4c3C(=O)Nc3cc(C)ccc3OC)CC2)c1 [Compound 272] | 10 to 100 nM
23 | COc1cccc(N2CCC(c3oc4cc([C@@H](CC(=O)O)C5CC5)ccc4c3C(=O)Nc3cc(C)ccc3Br)CC2)c1 [Compound 273] | ≤ 10 nM
24 | COc1cccc(N2CCC(c3oc4cc([C@@H](CC(=O)O)C5CC5)ccc4c3C(=O)N(C)c3cc([N+](=O)[O-])ccc3Cl)CC2)c1 [Compound 274] | 100 to 500 nM

Same assay, conditions: 4-hour treatment, class symbols

Row | SMILES | Efficacy (%)
25 | COc1cccc(N2CCC(c3oc4cc(C(CC(=O)O)C5CC5)ccc4c3C(=O)Nc3ccc(C)cc3F)CC2)c1 (stereo not drawn) [Compound 251] | †† (150 ≥ Efficacy (%) > 100)
26 | COc1cccc(N2CCC(c3oc4cc(C(CC(=O)O)C5CC5)ccc4c3C(=O)Nc3c(C)cccc3F)CC2)c1 (stereo not drawn) [Compound 252] | †† (150 ≥ Efficacy (%) > 100)
27 | COc1cccc(N2CCC(c3oc4cc([C@@H](CC(=O)O)C5CC5)ccc4c3C(=O)Nc3cc(C)ccc3F)CC2)c1 [Compound 253] | ††† (Efficacy (%) > 150)
28 | COc1cccc(N2CCC(c3oc4cc(C(CC(=O)O)C5CC5)ccc4c3C(=O)Nc3cccc(F)c3F)CC2)c1 (stereo not drawn) [Compound 254] | ††† (Efficacy (%) > 150)
29 | COc1cccc(N2CCC(c3oc4cc(C(CC(=O)O)C5CC5)ccc4c3C(=O)Nc3ccc(F)cc3F)CC2)c1 (stereo not drawn) [Compound 255] | †† (150 ≥ Efficacy (%) > 100)
30 | COc1cccc(N2CCC(c3oc4cc(C(CC(=O)O)C5CC5)ccc4c3C(=O)Nc3c(F)cccc3F)CC2)c1 (stereo not drawn) [Compound 256] | ††† (Efficacy (%) > 150)
31 | COc1cccc(N2CCC(c3oc4cc([C@@H](CC(=O)O)C5CC5)ccc4c3C(=O)Nc3cc(F)ccc3F)CC2)c1 [Compound 257] | ††† (Efficacy (%) > 150)
32 | COc1cccc(N2CCC(c3oc4cc(C(CC(=O)O)C5CC5)ccc4c3C(=O)Nc3cccc(OC)c3F)CC2)c1 (stereo not drawn) [Compound 258] | ††† (Efficacy (%) > 150)
33 | COc1cccc(N2CCC(c3oc4cc(C(CC(=O)O)C5CC5)ccc4c3C(=O)Nc3c(F)cccc3OC)CC2)c1 (stereo not drawn) [Compound 259] | †† (150 ≥ Efficacy (%) > 100)
34 | COc1cccc(N2CCC(c3oc4cc([C@@H](CC(=O)O)C5CC5)ccc4c3C(=O)Nc3cc(OC)ccc3F)CC2)c1 [Compound 260] | ††† (Efficacy (%) > 150)
35 | COc1cccc(N2CCC(c3oc4cc([C@@H](CC(=O)O)C5CC5)ccc4c3C(=O)Nc3cc(C(F)(F)F)ccc3F)CC2)c1 [Compound 261] | ††† (Efficacy (%) > 150)
36 | COc1cccc(N2CCC(c3oc4cc([C@@H](CC(=O)O)C5CC5)ccc4c3C(=O)Nc3cc(OC(F)(F)F)ccc3F)CC2)c1 [Compound 262] | †† (150 ≥ Efficacy (%) > 100)
37 | COc1cccc(N2CCC(c3oc4cc(C(CC(=O)O)C5CC5)ccc4c3C(=O)Nc3c(F)cccc3C(F)(F)F)CC2)c1 (stereo not drawn) [Compound 263] | †† (150 ≥ Efficacy (%) > 100)
38 | COc1cccc(N2CCC(c3oc4cc(C(CC(=O)O)C5CC5)ccc4c3C(=O)Nc3c(F)cccc3Br)CC2)c1 (stereo not drawn) [Compound 264] | †† (150 ≥ Efficacy (%) > 100)
39 | COc1cccc(N2CCC(c3oc4cc([C@@H](CC(=O)O)C5CC5)ccc4c3C(=O)Nc3cc(C)ccc3Cl)CC2)c1 [Compound 265] | ††† (Efficacy (%) > 150)
40 | COc1cccc(N2CCC(c3oc4cc([C@@H](CC(=O)O)C5CC5)ccc4c3C(=O)Nc3cc(F)ccc3Cl)CC2)c1 [Compound 266] | ††††
41 | COc1cccc(N2CCC(c3oc4cc([C@@H](CC(=O)O)C5CC5)ccc4c3C(=O)Nc3cc(Cl)ccc3Cl)CC2)c1 [Compound 267] | ††† (Efficacy (%) > 150)
42 | COc1cccc(N2CCC(c3oc4cc([C@@H](CC(=O)O)C5CC5)ccc4c3C(=O)Nc3cc(OC)ccc3Cl)CC2)c1 [Compound 268] | †† (150 ≥ Efficacy (%) > 100)
43 | COc1cccc(N2CCC(c3oc4cc([C@@H](CC(=O)O)C5CC5)ccc4c3C(=O)Nc3cc(C)ccc3C)CC2)c1 [Compound 269] | ††† (Efficacy (%) > 150)
44 | COc1cccc(N2CCC(c3oc4cc([C@@H](CC(=O)O)C5CC5)ccc4c3C(=O)Nc3cc(Cl)ccc3F)CC2)c1 [Compound 270] | ††††
45 | COc1cccc(N2CCC(c3oc4cc([C@@H](CC(=O)O)C5CC5)ccc4c3C(=O)Nc3cc(F)ccc3Br)CC2)c1 [Compound 271] | ††† (Efficacy (%) > 150)
46 | COc1cccc(N2CCC(c3oc4cc([C@@H](CC(=O)O)C5CC5)ccc4c3C(=O)Nc3cc(C)ccc3OC)CC2)c1 [Compound 272] | ††† (Efficacy (%) > 150)
47 | COc1cccc(N2CCC(c3oc4cc([C@@H](CC(=O)O)C5CC5)ccc4c3C(=O)Nc3cc(C)ccc3Br)CC2)c1 [Compound 273] | †† (150 ≥ Efficacy (%) > 100)
48 | COc1cccc(N2CCC(c3oc4cc([C@@H](CC(=O)O)C5CC5)ccc4c3C(=O)N(C)c3cc([N+](=O)[O-])ccc3Cl)CC2)c1 [Compound 274] | †† (150 ≥ Efficacy (%) > 100)
